{
  "source": "patent US7998460B2",
  "about": "“Prevention of deficits in neurogenesis with anti-inflammatory agents” (The Board of Trustees of the Leland Stanford Junior …, priority 2003, dated 2011)",
  "key": {"hippocampal neurogenesis": {"test_system": "hippocampal neurogenesis", "test": "10 Gy cranial X-irradiation, microglial inflammation and hippocampal neurogenesis at 2 months", "type": "in vivo, rat", "procedure": "Because rats are more radio resistant than humans, 10 Gy approximates a clinically relevant dose and is below the threshold to cause demyelination or overt vasculopathy in rats. This dose of X-irradiation was previously shown to spare roughly 30% of the NPC proliferative activity but completely ablate the production of neurons. X-irradiation was limited to a 1.5 cm cylinder centered over the cranium (remaining body parts were shielded). One month later, BrdU was administered systemically and at 2 months post-irradiation, brain tissues were analyzed for hippocampal neurogenesis.\nControl animals were given either vehicle (5% bicarbonate) injections i.p. or plain dog food. To ensure complete consumption of food and medication in the 2 month paradigm, rats were restricted to 80% of their ad lib intake.\nIrradiation Adult female Fisher 344 rats were anesthetized with ketamine and xylazine and exposed to cranial irradiation using a Philips orthovoltage X-ray system operated at 200 kVp and 20 mA. A single dose of 10 Gy was delivered to the cranium of each rat with shielding of the body, neck, eyes and snout. Dosimetry was done using TLD dosimeters (K & S Associates, Nashville, Tenn.) buried in the hippocampi, cerebellum, mouth, eyes and ears of euthanized rats. The corrected dose rate was approximately 44.5 cGy/minute. Sham-irradiated controls for all experiments received anesthesia only.\nBrdU injections and tissue preparation. Animals were injected intraperitoneally with BrdU once each day for 6 days. Animals were then anesthetized and sacrificed on the 28th day after the initial BrdU injection by transcardial perfusion with 4% paraformaldehyde. Brains were removed and postfixed overnight and then equilibrated in phosphate buffered 30% sucrose. Free floating 40 μm sections were collected on a freezing microtome and stored in cryoprotectant as previously described.\nImmunocytochemistry and immunofluorescent staining. […]\nCell counting and unbiased stereology. […] The proportion of BrdU cells displaying a lineage-specific phenotype was determined by scoring the co-localization of cell phenotype markers with BrdU using confocal microscopy. […] When possible, 100 or more BrdU-positive cells were scored for each marker per animal. Each cell was manually examined in its full “z”-dimension and only those cells for which the nucleus was unambiguously associated with the lineage-specific marker were scored as positive. The total number of BrdU-labeled cells per hippocampal granule cell layer and subgranule zone was determined using diaminobenzadine stained tissues. In a separate series, the total number of ED1-labeled cells per dentate gyrus was also determined using diaminobenzadine stained tissue. Stained BrdU-positive nuclei or ED1-positive cells were scored under light microscopy using Microbrightfield Stereo Investigator software and the Fractionator method. Overestimation was corrected using the Abercrombie method for nuclei with empirically determined average diameter of 13 μm within a 40 μm section."}, "[1]": {"test": "Mortality with indomethacin in mice", "type": "in vivo, mouse", "conditions": "higher dose (5 mg/kg BID)", "from_the_text": "The propensity of NSAIDs to induce ulceration and bleeding often outweigh the anti-inflammatory benefits. […] NSAIDs that more selectively target Cox-2, such as roficoxib and celecoxib, are well tolerated and have been widely used as alternatives to broad spectrum NSAIDs for controlling inflammation. In addition, the selective agonism of PPAR-γ is an effective anti-inflammatory strategy, e.g., through administration of thiazolidinediones such as rosiglitazone or pioglitizone. […] Mice were started on a 16 day preventative course of oral NSAID and then challenged with a single IP injection of LPS (5 mg/kg) and then BrdU (50 mg/kg) over 6 days beginning 2 h after LPS. The mice were either perfused 28 days after LPS injection, or trained and tested in the Morris water maze.\nNSAID treatment. One half of the saline- and LPS-treated mice were fed non-steroidal anti-inflammatory drug (NSAID), in low fat strawberry milk, twice per day for two weeks following LPS injection (Days 0-13). The mice were initially introduced to low fat strawberry milk (Berkeley Farms, Calif.; 200 μl per animal) in their home cages, four days before LPS was injected (Days […]) and were then placed in a PVC tube (10-cm diameter×18-cm height), twice per day (12 h apart) beginning two days before LPS was injected (Days −2 and −1) until they consumed a 100 μl volume of low fat strawberry milk. […]"}},
  "note": "“Also recorded” adds a separate entry of the source.",
  "data": [
    {"smiles": "COc1ccc2c(c1)c(CC(=O)O)c(C)n2C(=O)c1ccc(Cl)cc1", "note": "[indomethacin]", "values": [
      {"measurement": "effect on cell fate in non-irradiated rats", "setting": "hippocampal neurogenesis; indomethacin, non-irradiated", "result": "no effect"},
      {"measurement": "effect on CD11b/NG2+ infiltrating peripheral monocytes", "setting": "hippocampal neurogenesis; irradiated, indomethacin 2.5 mg/Kg orally every 12 hours", "result": "particularly effective at decreasing; also recorded: significantly reduced"},
      {"measurement": "proportion of proliferative cells adopting a neuronal fate", "setting": "hippocampal neurogenesis; irradiated, indomethacin-treated (untreated irradiated 15%)", "result": 37, "unit": "%"},
      {"measurement": "total newborn hippocampal neurons", "setting": "hippocampal neurogenesis; irradiated, indomethacin-treated (untreated irradiated 125±25)", "result": "360±68", "unit": "newborn neurons"},
      {"measurement": "total BrdU+ proliferative cells per neurogenic region of the dentate gyrus", "setting": "hippocampal neurogenesis; irradiated, indomethacin-treated (untreated irradiated 828±135)", "result": "958±136", "unit": "proliferative cells"},
      {"measurement": "mortality", "setting": "[1]", "result": 100, "unit": "%"}
    ]}
  ]
}
